In patent US20210244028A1, “TREATMENT FOR REMOVING ECTOPARASITES FROM FISH” (priority 2018, published 2021):
Values joined by “and” are separate entries in the source; they are usually repeats but may differ in a detail not shown here. Equal entries are not always repeated.

How the values were obtained:
[1] = tested on: azamethiphos- and deltamethrin-resistant sea lice; assay: In vitro bath exposure of isolated sea lice (Example 6); details: 30 minutes exposure, registered approx. 20 h after end of exposure
Description: A trial was performed to ensure there was no cross-resistance between azamethiphos- and deltamethrin-resistant sea lice and neonicotinoids. Both pre-adult and adult stages (mobile stages) of both sexes were used, and they were equally distributed among groups. The sea lice were exposed to imidacloprid for 60 minutes, azamethiphos for 60 minutes and deltamethrin for 30 minutes in one litre baths at a range of concentrations (Tables 6, 7 and 8). The sea lice were transferred to clean aerated seawater after treatment. The temperature of the seawater during the experiment was 12° C., but during exposure the temperature raised to approx. 14° C. in regimes exposed for 60 min. (imidacloprid and azamethiphos) and to 13° C. for the regime exposed in 30 minutes (deltamethrin).
The numbers of live and immobilised (including killed) lice in each regime were registered approximately 20 h after end of exposure. Each louse was individually investigated.

Salmon lice = assay: Bath treatment of lice-infected Atlantic salmon, percent lice removed (Example 7); assay type: in vivo; details: 0.2 μl/l, 30 minutes, duplicate, 3 fish per test
Description: To determine the concentration- and time-dependence of imidacloprid treatment in vivo, Atlantic salmon (average of 320.9 g) were challenged with imidacloprid in seawater ([…] salinity) at 12° C. The water level in the tank was lowered and aeration was employed during administration of the active. The salmon louse copepodid culture was counted and adjusted to obtain a target level of around 40 copepodids per fish in the challenge tank at each challenge time point.
Salmon lice on the fish were counted using standard methods. Only lice on the fish's outer surface, not including gills and oral/buccal cavities, were investigated.
Numbers of dissociated lice in tank water or attached to the tank walls were recorded. Lice in the tank water were collected and assessed for ability to attach by suction to a smooth plastic surface immediately after treatment and again after 30-60 minutes (to assess possible revival). […]
To terminate the treatment, the inner compartment with treated fish was lifted to the surface and drained, then fish were transferred directly and without water to a second basin with a lethal overdose of anaesthetic and left until dead. All lice remaining on these fish and lice that fell off in the anaesthetic bath were recorded. […]

In the case of `CC1(C)[C@H](C(=O)O[C@H](C#N)c2cccc(Oc3ccccc3)c2)[C@@H]1C=C(Br)Br` [deltamethrin], the “% effect” value ([1]; 5 ppm) was 0%, the Immobilised ([1]; 5 ppm) was 0 and the Live ([1]; 5 ppm) was 10. The Live ([1]; 10 ppm) was 9 and 10, the “% effect” value ([1]; 15 ppm) was 20% and 10% and the Immobilised ([1]; 15 ppm) was 2 and 1. For the same compound, the Live ([1]; 15 ppm) was 8 and 9, the “% effect” value ([1]; 20 ppm) was 20% and 10% and the Immobilised ([1]; 20 ppm) was 2 and 1. The Live ([1]; 20 ppm) was 8 and 9, the Immobilised ([1]; 30 ppm) was 1 and 2 and the Live ([1]; 30 ppm) was 10 and 8. For the same compound, the “% Removal” value (Salmon lice) was 0^37%.
